Experimental data published in PubChem BioAssay AID179 (DTP/NCI, 2004).
Activity calls are given as the source filed them.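 Rule for the calls: active = compounds giving half or more protection of infected cells from virus-caused growth loss, again on retest; inactive = the rest.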

System: CEM cells HIV-1 protection, formazan growth assay
Experiment: NCI AIDS Antiviral Assay
Settings: for IC50: measured here: growth of uninfected CEM cells
Procedure, shortened: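 Protection of CEM cells against HIV-1 was scored from cell growth (soluble formazan) across five concentrations, with parallel uninfected cells. Lack of protection may reflect toxicity.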

| Structure (SMILES) | EC50 [µM] | IC50 [µM] | outcome |
| --- | --- | --- | --- |
| NCc1ccc(O)c(O)c1O | > 200 | 9.33 | – |
| O=c1[nH]c2cc(Cl)ccc2c(O)c1Cc1c(O)c2ccc(Cl)cc2[nH]c1=O | > 100 | 5.37 | – |
| COc1cc2noc(-c3ccccc3)c2cc1OC | – | – | inactive |
| CN(C)CC/C(=N\Nc1ccc([N+](=O)[O-])cc1)c1ccccc1 | – | – | inactive |
| CS(=O)(=O)Oc1nn2c(OS(C)(=O)=O)nnc2s1 | > 200 | 28.8 | – |
| CCOP(=O)(/N=C1/C2CCC(C2)C1C)OCC (stereo unspecified) | > 234 | > 234 | – |
| CCOC(=O)c1cn(C)c2c1C(O)=C(C(=O)OC)CC(=O)N2 | > 234 | 178 | – |
| CC1CC(C)(C)N=C(CCC[N+](=O)[O-])O1 (stereo unspecified) | > 200 | > 200 | – |
| [Cl][Sn]([c]1ccccc1)([c]1ccccc1)[c]1ccccc1 | – | – | inactive |
| Cc1cccc(/C(Br)=C2/OC(=O)c3ccccc32)c1 | > 200 | 182 | – |
| C=CC[P@]1(=O)O[C@H](c2ccccc2)[C@H](C)N1C | – | – | inactive |
| Cn1c2ccccc2c(=O)c2c(O)cc3c(c21)C1OCC(C)(O)C1O3 (stereo unspecified) | > 200 | 33.9 | – |
| NC1(N2SC(S)=C3CCCC=C32)CCCCC1 | 42.7 | > 200 | – |
| CC1N=C(c2ccccc2)OC1=O (stereo unspecified) | > 200 | > 200 | – |
| C1CCC(OCC2(COC3CCCCO3)CCCCO2)OC1 (stereo unspecified) | > 200 | > 200 | – |
| CC1=CC(C)(C)N=C2SC(c3ccc(N)cc3)=NN12 | > 251 | 2 | – |
| Cc1nc2ccc(N)cc2[nH]c1=O | > 741 | > 741 | – |
| O=C(CC(=O)c1cccc2ccccc12)C(=O)Nc1ccc(Cl)cc1 | – | – | inactive |
| CC(O)C(C(=O)O)N(CC1(O)OCC(O)C(O)C1O)N=O (stereo unspecified) | – | – | inactive |
| CCOC(=O)N(C)C(=C(F)F)C(F)(F)F | > 200 | > 200 | – |
| O=C(O)CC[n+]1ccccc1 | > 200 | > 200 | – |
| COC(=O)/C=C/c1cc2c(cc1-c1c(C(=O)O)cc(OC)c(OC)c1OC)OCO2 | > 603 | > 603 | – |
| CC1(C)OC2C3CC(C2O1)C1C3C2(Cl)CC1(Cl)C(Cl)=C2Cl (stereo unspecified) | – | – | inactive |

| Structure (SMILES) | EC50 [µM] | IC50 [µM] | outcome |
| --- | --- | --- | --- |
| CCOc1nc2sc3c(c2c(=O)n1CCSSCCn1c(OCC)nc2sc4c(c2c1=O)CCCC4)CCCC3 | > 100 | > 100 | – |
| CCc1nc2ccc(C(F)(F)F)cc2[nH]c1=O | > 200 | 105 | – |
| Cc1ccc(Nc2nc3[nH]ccc3c(=O)[nH]2)cc1 | > 200 | > 200 | – |
| C1=C[C@]2(CCC13OCCO3)COc1ccccc12 | > 200 | 18.6 | – |
| O=C(CCN(C(=O)O)S(=O)(=O)c1ccc(NC(=O)c2ccccc2)cc1)Nc1ccccc1 | > 537 | > 537 | – |
| O=C1CSC(c2ccccc2O)N1c1ccc(-c2ccc(-n3c(-c4ccccc4)nc4ccccc4c3=O)cc2)cc1 (stereo unspecified) | > 200 | 12 | – |
| N=c1oc2ccc(Cl)cc2cc1C(=O)Nc1ccccc1 | > 151 | 21.9 | – |
| Clc1cc2c(c(CSc3nc4ccccc4n4cccc34)c1)OCOC2 | > 13.5 | > 13.5 | – |
| C[C@]12CC[C@H](O)CC1=CC[C@@H]1C2CC[C@]2(C)NC(=O)CCC12 (stereo partly specified) | – | – | inactive |
| Cn1c(=O)cc(CC#N)c2ccccc21 | > 200 | > 200 | – |
| Oc1ccc(SCc2cc(O)ccc2O)cc1 | > 200 | 7.08 | – |
| COc1cc(C(=O)/C=C/c2ccc(OCCSCCCCCCCCCCSCCOc3ccc(/C=C/C(=O)c4cc(OC)c(OC)c(OC)c4)cc3)cc2)cc(OC)c1OC | > 151 | > 151 | – |
| CC(C)=CCC[C@@H](C)c1c(O)c(O)c(C)c2nccnc12 | > 200 | 38 | – |
| CC(C#N)Nc1ccc(Oc2ccc(C(C)(C)c3ccc(Oc4ccc(NC(C)C#N)cc4)cc3)cc2)cc1 (stereo unspecified) | > 200 | 13.5 | – |
| CC1(C)C2CCC13CS(=O)(=O)N1O[C@]13C(=O)O2 (stereo partly specified) | > 195 | > 195 | – |
| CC1CCC2(CC1)CC(=O)N(N1CCOCC1)C(=O)C2 | > 200 | > 200 | – |
| C=C1CN(S(=O)(=O)c2ccc(C)cc2)CCCN(CC(C)(C)C)CCCN(S(=O)(=O)c2ccc(C)cc2)C1 | > 200 | 10.5 | – |
| COc1cc(O)c2c(=O)c(O)c(-c3ccc(O)c(O)c3)oc2c1 | > 93.3 | 47.9 | – |
| CC1(C)NC(=S)NC1=O | > 200 | > 200 | – |
| COc1cc(C(=O)O)c(C(=O)c2ccc(C#N)cc2)cc1OC | > 200 | > 200 | – |
| CCCCN(CC)C(=O)C1=C(C)NC(C)=C(C(=O)N(CC)CCCC)C1 | > 200 | 135 | – |
| Cc1cc(C(=O)CCCCOc2ccc(C3=NCCO3)cc2)c(C)n1C | – | – | inactive |
